Laboratory results: patent US20150164762A1, “USE OF ETHANOLAMINE PHOSPHATE” (priority 2012, published 2015)

System: BEAS-2B
Assay: Comprehensive gene expression analysis with Whole Human Genome DNA microarray after EP treatment
Type: cell-based
Procedure: Cells of the established normal human airway epithelial cell line BEAS-2B were used in the experiment. These cells were expansively cultured in 10% FBS RPMI-1640, and seeded at a density of 1×10^5/cm^2 on a 24-well plate. After 24 hours 0.1% FBS RPMI-1640 was substituted, and EP was administered to a final concentration of 0 or 1 mM (n=4). After 24 hours, the cells were used as the DNA microarray samples. RNA was extracted using a QIAGEN RNeasy Mini Kit. The DNA microarray test was performed using a Whole Human Genome DNA microarray 4×44K (Agilent), and the necessary labeling reagents and the like for the DNA microarray test were all from Agilent. The DNA microarray test data were analyzed statistically with GeneSpring (Agilent) dedicated analysis software, and gene function analysis (Gene Ontology (GO) analysis) was performed based on differential expression. The purpose of the GO analysis is to determine stochastically the degree to which gene sets with statistically significant differential expression correspond to known functional classification gene sets. […] The p-value is calculated according to the following formula.

[1] = probe A_23_P92499, 1 mM EP, 24 h
[2] = probe A_23_P94754, NM_005118, EP vs control
[3] = probe A_23_P94754, 1 mM EP, 24 h
[4] = probe A_23_P104798, NM_001562, EP vs control
[5] = probe A_23_P104881, 1 mM EP, 24 h
[6] = probe A_23_P105138, NM_001752, EP vs control
[7] = probe A_23_P105138, 1 mM EP, 24 h
[8] = probe A_23_P105803, 1 mM EP, 24 h
[9] = probe A_23_P110052, 1 mM EP, 24 h
[10] = probe A_23_P110151, 1 mM EP, 24 h
[11] = probe A_23_P114662, NM_001889, EP vs control
[12] = probe A_23_P115286, 1 mM EP, 24 h
[13] = probe A_23_P118061, 1 mM EP, 24 h
[14] = probe A_23_P118174, 1 mM EP, 24 h
[15] = probe A_23_P122052, NM_001008397, EP vs control
[16] = probe A_23_P122216, NM_002317, EP vs control
[17] = probe A_23_P122216, 1 mM EP, 24 h
[18] = probe A_23_P122775, NM_032730, EP vs control
[19] = probe A_23_P126844, 1 mM EP, 24 h
[20] = probe A_23_P127322, NM_018055, EP vs control
[21] = probe A_23_P127406, NM_018039, EP vs control
[22] = probe A_23_P128050, 1 mM EP, 24 h
[23] = probe A_23_P128215, 1 mM EP, 24 h
[24] = probe A_23_P128230, 1 mM EP, 24 h
[25] = probe A_23_P129313, NM_001159508, EP vs control
[26] = probe A_23_P131588, NM_014482, EP vs control
[27] = probe A_23_P132388, NM_005138, EP vs control
[28] = probe A_23_P134925, 1 mM EP, 24 h
[29] = probe A_23_P135024, 1 mM EP, 24 h
[30] = probe A_23_P135248, NM_006664, EP vs control
[31] = probe A_23_P136116, NM_001004320, EP vs control
[32] = probe A_23_P136493, NM_013962, EP vs control
[33] = probe A_23_P138635, 1 mM EP, 24 h
[34] = probe A_23_P143242, 1 mM EP, 24 h
[35] = probe A_23_P145357, 1 mM EP, 24 h
[36] = probe A_23_P146644, 1 mM EP, 24 h

Structure (SMILES): NCCOP(=O)(O)O [EP, Ethanolamine phosphate]
- CIDEC expression log2 [ratio] (probe A_23_P92025, 1 mM EP, 24 h): −0.754
- TLR2 expression R*: Ratio to control [1]: 0.632 times
- TLR2 expression log2 [ratio] [1]: −0.662
- TNFSF15 gene expression, R* ratio to control [2]: 0.399 times
- TNFSF15 gene expression, log2 [ratio] [2]: −1.327
- TNFSF15 expression R*: Ratio to control [3]: 0.399 times
- TNFSF15 expression log2 [ratio] [3]: −1.327
- IL18 gene expression, R* ratio to control [4]: 0.641 times
- IL18 gene expression, log2 [ratio] [4]: −0.641
- ROBO4 expression R*: Ratio to control [5]: 1.785 times
- ROBO4 expression log2 [ratio] [5]: 0.836
- CAT gene expression, R* ratio to control [6]: 1.505 times
- CAT gene expression, log2 [ratio] [6]: 0.589
- CAT expression R*: Ratio to control [7]: 1.505 times
- CAT expression log2 [ratio] [7]: 0.589
- FGF9 expression R*: Ratio to control [8]: 1.606 times
- FGF9 expression log2 [ratio] [8]: 0.684
- FOXL2 expression R*: Ratio to control [9]: 0.352 times
- FOXL2 expression log2 [ratio] [9]: −1.504
- ARHGAP24 expression R*: Ratio to control [10]: 1.670 times
- ARHGAP24 expression log2 [ratio] [10]: 0.740
- CRYZ gene expression, R* ratio to control [11]: 1.632 times
- CRYZ gene expression, log2 [ratio] [11]: 0.707
- BCL10 expression R*: Ratio to control [12]: 0.542 times
- BCL10 expression log2 [ratio] [12]: −0.883
- CKLF expression R*: Ratio to control [13]: 1.501 times
- CKLF expression log2 [ratio] [13]: 0.586
- PLK1 expression R*: Ratio to control [14]: 2.447 times
- PLK1 expression log2 [ratio] [14]: 1.291
- GPX8 gene expression, R* ratio to control [15]: 1.413 times
- GPX8 gene expression, log2 [ratio] [15]: 0.499
- LOX gene expression, R* ratio to control [16]: 1.637 times
- LOX gene expression, log2 [ratio] [16]: 0.711
- LOX expression R*: Ratio to control [17]: 1.637 times
- LOX expression log2 [ratio] [17]: 0.711
- RTN4IP1 gene expression, R* ratio to control [18]: 1.436 times
- RTN4IP1 gene expression, log2 [ratio] [18]: 0.522
- TNFRSF25 expression R*: Ratio to control [19]: 0.532 times
- TNFRSF25 expression log2 [ratio] [19]: −0.909
- NODAL gene expression, R* ratio to control [20]: 0.450 times
- NODAL gene expression, log2 [ratio] [20]: −1.154
- KDM4D gene expression, R* ratio to control [21]: 1.448 times
- KDM4D gene expression, log2 [ratio] [21]: 0.534
- BCL2L14 expression R*: Ratio to control [22]: 0.594 times
- BCL2L14 expression log2 [ratio] [22]: −0.751
- SOCS2 expression R*: Ratio to control [23]: 1.720 times
- SOCS2 expression log2 [ratio] [23]: 0.783
- NR4A1 expression R: Ratio to control [24]: 0.302 times
- NR4A1 expression log2 [ratio] [24]: −1.727
- IVD gene expression, R* ratio to control [25]: 1.473 times
- IVD gene expression, log2 [ratio] [25]: 0.559
- BMP10 gene expression, R* ratio to control [26]: 0.625 times
- BMP10 gene expression, log2 [ratio] [26]: −0.678
- SCO2 gene expression, R* ratio to control [27]: 1.495 times
- SCO2 gene expression, log2 [ratio] [27]: 0.580
- BNIP3L expression R*: Ratio to control [28]: 0.633 times
- BNIP3L expression log2 [ratio] [28]: −0.661
- ARHGEF6 expression R*: Ratio to control [29]: 0.270 times
- ARHGEF6 expression log2 [ratio] [29]: −1.889
- CCL27 gene expression, R* ratio to control [30]: 0.556 times
- CCL27 gene expression, log2 [ratio] [30]: −0.846
- TMEM195 gene expression, R* ratio to control [31]: 1.962 times
- TMEM195 gene expression, log2 [ratio] [31]: 0.972
- NRG1 gene expression, R* ratio to control [32]: 0.646 times
- NRG1 gene expression, log2 [ratio] [32]: −0.830
- BNIP3 expression R*: Ratio to control [33]: 0.374 times
- BNIP3 expression log2 [ratio] [33]: −1.418
- CEBPB expression R*: Ratio to control [34]: 0.617 times
- CEBPB expression log2 [ratio] [34]: −0.697
- BAK1 expression R*: Ratio to control [35]: 0.402 times
- BAK1 expression log2 [ratio] [35]: −1.313
- ANXA2 expression R*: Ratio to control [36]: 1.673 times
- ANXA2 expression log2 [ratio] [36]: 0.742
